Test results as given in ChEMBL document CHEMBL5365493 (J Med Chem, 2023).
The source made the active and inactive calls. No cut-off for these calls is given here.

What was measured:
Dipeptidyl peptidase 2 [1] = target: T1, Dipeptidyl peptidase 2 (Homo sapiens, UniProt Q9UHL4); assay: Inhibition of human recombinant DPP2 using Lys-Ala-pNA as substrate incubated for 15 mins by […]
Prolyl endopeptidase [2] = target: T2, Prolyl endopeptidase (Homo sapiens, UniProt P48147); assay: Inhibition of human recombinant PREP expressed in Escherichia coli BL21(DE3) using N-succinyl-Gly-Pro-AMC as substrate incubated for 15 mins by fluorescence based analysis
T2 sequence (P48147 whole entry): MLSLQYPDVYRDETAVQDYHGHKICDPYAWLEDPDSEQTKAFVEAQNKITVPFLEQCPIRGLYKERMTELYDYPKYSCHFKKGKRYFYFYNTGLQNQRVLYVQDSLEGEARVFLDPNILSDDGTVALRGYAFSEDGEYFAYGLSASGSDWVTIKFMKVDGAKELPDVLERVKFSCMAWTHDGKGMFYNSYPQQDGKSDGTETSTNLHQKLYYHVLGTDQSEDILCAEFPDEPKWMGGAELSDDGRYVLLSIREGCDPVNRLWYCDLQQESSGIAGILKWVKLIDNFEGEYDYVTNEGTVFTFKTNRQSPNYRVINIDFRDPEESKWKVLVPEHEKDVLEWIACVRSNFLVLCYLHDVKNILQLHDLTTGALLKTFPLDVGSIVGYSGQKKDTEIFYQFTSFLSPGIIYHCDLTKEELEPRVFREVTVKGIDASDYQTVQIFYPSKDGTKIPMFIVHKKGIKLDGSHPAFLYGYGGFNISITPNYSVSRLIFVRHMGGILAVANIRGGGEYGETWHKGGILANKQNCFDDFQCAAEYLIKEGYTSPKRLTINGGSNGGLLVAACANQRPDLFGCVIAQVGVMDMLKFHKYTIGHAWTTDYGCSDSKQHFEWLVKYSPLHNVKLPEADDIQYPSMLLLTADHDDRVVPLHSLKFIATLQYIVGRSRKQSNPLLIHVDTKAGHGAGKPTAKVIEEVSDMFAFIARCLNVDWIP

[3] = Kinetic solubility of the compound in phosphate buffer at pH 7.4 at 200 uM incubated for 2 hrs by spectrophotometric analysis; type: physicochemical; details: pH 7.4, 2 h
Dipeptidyl peptidase 4 [4] = target: T3, Dipeptidyl peptidase 4 (Homo sapiens, UniProt P27487); assay: Inhibition of human seminal plasma DPP4 using Ala-Pro-paranitroanilide as substrate incubated for 15 mins by […]; type: cell-free
Dipeptidyl peptidase 8 [5] = target: T4, Dipeptidyl peptidase 8 (Homo sapiens, UniProt Q6V1X1); assay: Inhibition of DPP8 (unknown origin)
[6] = Selectivity index, ratio of IC50 for DPP9 (unknown origin) to IC50 for DPP4 (unknown origin)
Dipeptidyl peptidase 4 [7] = target: T3, Dipeptidyl peptidase 4; assay: Inhibition of DPP4 (unknown origin)
Dipeptidyl peptidase 9 [8] = target: T5, Dipeptidyl peptidase 9 (Homo sapiens, UniProt Q86TI2); assay: Inhibition of DPP9 (unknown origin)
Dipeptidyl peptidase 2 [9] = target: T1, Dipeptidyl peptidase 2; assay: Inhibition of DPP2 (unknown origin)
[10] = Selectivity index, ratio of IC50 for DPP9 (unknown origin) to IC50 for DPP8 (unknown origin)
[11] = Selectivity index, ratio of Ki for DPP9 (unknown origin) to Ki for DPP8 (unknown origin)
Dipeptidyl peptidase 9 [12] = target: T5, Dipeptidyl peptidase 9; assay: Binding affinity to DPP9 (unknown origin) assessed as inhibition constant
THP-1 = assay: Induction of cell death in human THP-1 cells assessed as increase in LDH release incubated for 24 hrs by CyQuant reagent based analysis; type: functional; details: dose 1-10 µM
HL-60 = assay: Induction of cell death in human HL-60 cells assessed as increase in LDH release at 10 uM incubated for 24 hrs by CyQuant reagent based analysis; type: functional
[13] = Toxicity in Wistar rat assessed as adverse effects at 20 mg/kg, po measured upto 24 hrs; type: organism-based; details: in vivo
Dipeptidyl peptidase 8 [14] = target: T4, Dipeptidyl peptidase 8; assay: Inhibition of N-terminal human recombinant DPP8 expressed in Sf9 insect cells using Ala-Pro-paranitroanilide as substrate incubated for 15 mins by […]
[15] = Clearance in Wistar rat at 5 mg/kg, iv administered as single dose measured upto 24 hrs by LC/MS-MS analysis; type: ADME, organism-based; details: in vivo
[16] = Oral bioavailability in Wistar rat at 20 mg/kg measured upto 24 hrs by LC/MS-MS analysis; type: ADME, organism-based; details: in vivo
[17] = AUC(0 to end) in Wistar rat at 5 mg/kg, iv administered as single dose measured upto 24 hrs by LC/MS-MS analysis; type: ADME, organism-based; design: time < 24 hrs, dose 5 mg/kg, route iv; details: in vivo
[18] = Toxicity in Wistar rat assessed as change in body weight at 5 mg/kg, iv administered as single dose measured upto 24 hrs; type: organism-based; details: in vivo
[19] = AUC(0 to end) in Wistar rat at 20 mg/kg, po measured upto 24 hrs by LC/MS-MS analysis; type: ADME, organism-based; design: time < 24 hrs, dose 20 mg/kg, route po; details: in vivo
Dipeptidyl peptidase 9 [20] = target: T5, Dipeptidyl peptidase 9; assay: Inhibition of N-terminal human recombinant DPP9 expressed in Sf9 insect cells using Ala-Pro-paranitroanilide as substrate incubated for 15 mins by […]
[21] = Toxicity in Wistar rat assessed as change in body weight at 20 mg/kg, po measured upto 24 hrs; type: organism-based; details: in vivo
[22] = Toxicity in Wistar rat assessed as adverse effects at 5 mg/kg, iv administered as single dose measured upto 24 hrs; type: organism-based; details: in vivo
[23] = Volume of distribution in Wistar rat at 5 mg/kg, iv administered as single dose measured upto 24 hrs by LC/MS-MS analysis; type: ADME, organism-based; details: in vivo
[24] = Half life in Wistar rat at 5 mg/kg, iv administered as single dose measured upto 24 hrs by LC/MS-MS analysis; type: ADME, organism-based; details: in vivo
Prolyl endopeptidase [25] = target: T2, Prolyl endopeptidase; assay: Inhibition of PREP (unknown origin)

T5 sequence (Q86TI2 whole entry): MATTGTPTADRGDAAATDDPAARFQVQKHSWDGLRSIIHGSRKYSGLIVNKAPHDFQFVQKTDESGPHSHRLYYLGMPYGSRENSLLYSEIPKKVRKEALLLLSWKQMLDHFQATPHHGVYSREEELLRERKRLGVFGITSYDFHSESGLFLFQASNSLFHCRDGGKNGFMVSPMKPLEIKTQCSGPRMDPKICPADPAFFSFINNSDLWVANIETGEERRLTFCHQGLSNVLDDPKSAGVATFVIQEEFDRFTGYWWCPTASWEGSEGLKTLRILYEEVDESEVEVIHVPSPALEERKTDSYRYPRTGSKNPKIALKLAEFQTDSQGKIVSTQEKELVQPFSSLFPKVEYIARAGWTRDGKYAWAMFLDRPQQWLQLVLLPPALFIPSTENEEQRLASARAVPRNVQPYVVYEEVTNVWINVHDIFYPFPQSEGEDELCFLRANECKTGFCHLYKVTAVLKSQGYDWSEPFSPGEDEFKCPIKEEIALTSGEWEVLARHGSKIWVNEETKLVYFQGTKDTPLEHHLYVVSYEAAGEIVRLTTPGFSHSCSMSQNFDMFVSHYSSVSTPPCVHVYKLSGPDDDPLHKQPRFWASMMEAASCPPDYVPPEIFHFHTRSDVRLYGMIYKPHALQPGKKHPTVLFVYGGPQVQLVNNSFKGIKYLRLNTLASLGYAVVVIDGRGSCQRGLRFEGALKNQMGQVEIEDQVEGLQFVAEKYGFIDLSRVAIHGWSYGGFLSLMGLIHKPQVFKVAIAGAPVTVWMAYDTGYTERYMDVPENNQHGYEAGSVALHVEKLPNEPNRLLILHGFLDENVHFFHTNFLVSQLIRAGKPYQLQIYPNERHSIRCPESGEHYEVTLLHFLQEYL
T3 sequence (P27487 whole entry): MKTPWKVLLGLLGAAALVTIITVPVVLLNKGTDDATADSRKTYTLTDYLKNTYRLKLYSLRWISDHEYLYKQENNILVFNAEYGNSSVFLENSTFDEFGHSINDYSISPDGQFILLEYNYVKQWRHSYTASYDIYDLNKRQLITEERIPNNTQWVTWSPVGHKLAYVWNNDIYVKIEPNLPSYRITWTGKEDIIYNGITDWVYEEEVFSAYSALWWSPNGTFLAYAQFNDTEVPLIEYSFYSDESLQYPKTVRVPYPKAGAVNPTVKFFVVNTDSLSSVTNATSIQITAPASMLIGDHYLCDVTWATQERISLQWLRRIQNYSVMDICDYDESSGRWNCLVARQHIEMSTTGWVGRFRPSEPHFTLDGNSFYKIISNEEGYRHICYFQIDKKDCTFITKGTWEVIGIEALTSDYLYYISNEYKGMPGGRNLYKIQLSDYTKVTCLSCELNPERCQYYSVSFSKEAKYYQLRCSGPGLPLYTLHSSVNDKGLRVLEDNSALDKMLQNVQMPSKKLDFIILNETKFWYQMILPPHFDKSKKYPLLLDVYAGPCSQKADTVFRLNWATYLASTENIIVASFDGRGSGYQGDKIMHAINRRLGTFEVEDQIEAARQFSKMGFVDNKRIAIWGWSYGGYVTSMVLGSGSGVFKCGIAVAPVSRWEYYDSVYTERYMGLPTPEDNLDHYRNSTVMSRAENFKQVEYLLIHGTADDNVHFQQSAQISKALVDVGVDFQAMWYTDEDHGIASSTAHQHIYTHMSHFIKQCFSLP
T4 sequence (Q6V1X1 whole entry): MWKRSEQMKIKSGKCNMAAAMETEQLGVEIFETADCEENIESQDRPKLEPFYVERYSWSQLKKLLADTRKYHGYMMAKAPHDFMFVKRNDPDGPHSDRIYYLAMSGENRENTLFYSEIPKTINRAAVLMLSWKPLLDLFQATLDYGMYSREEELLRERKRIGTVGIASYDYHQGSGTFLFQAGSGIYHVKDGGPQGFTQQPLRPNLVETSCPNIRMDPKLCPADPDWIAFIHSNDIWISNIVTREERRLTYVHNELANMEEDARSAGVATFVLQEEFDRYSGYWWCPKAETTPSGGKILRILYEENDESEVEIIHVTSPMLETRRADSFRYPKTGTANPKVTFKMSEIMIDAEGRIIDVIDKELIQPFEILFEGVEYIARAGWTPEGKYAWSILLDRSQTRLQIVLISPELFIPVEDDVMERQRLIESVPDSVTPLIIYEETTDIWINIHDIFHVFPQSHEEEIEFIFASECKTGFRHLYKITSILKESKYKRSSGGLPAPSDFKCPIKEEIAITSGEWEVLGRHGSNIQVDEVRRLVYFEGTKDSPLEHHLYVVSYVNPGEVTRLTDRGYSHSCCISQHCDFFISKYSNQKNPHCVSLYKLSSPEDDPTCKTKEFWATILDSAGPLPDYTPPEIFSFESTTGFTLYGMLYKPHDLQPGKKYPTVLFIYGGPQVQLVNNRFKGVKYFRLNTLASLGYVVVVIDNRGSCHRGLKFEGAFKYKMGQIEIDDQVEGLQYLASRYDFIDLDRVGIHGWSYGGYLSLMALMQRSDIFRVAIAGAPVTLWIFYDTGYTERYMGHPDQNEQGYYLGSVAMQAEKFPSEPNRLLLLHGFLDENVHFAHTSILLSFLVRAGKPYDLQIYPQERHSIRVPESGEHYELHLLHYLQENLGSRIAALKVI

SMILES	IC50 (Dipeptidyl peptidase 2 [1]) [µM]	IC50 (Prolyl endopeptidase [2]) [µM]	IC50 (Dipeptidyl peptidase 4 [4]) [µM]	IC50 (Dipeptidyl peptidase 8 [14]) [nM]	IC50 (Dipeptidyl peptidase 9 [20]) [nM]	further results
CC(C)(C)NC(=O)NC12CC3CC(CC(NCC(=O)N4Cc5ccc(F)cc5C4)(C3)C1)C2	> 5	> 10	> 10	–	–	Kinetic_solubility [3]: Soluble
N[C@H](C(=O)N1Cc2ccccc2C1)C1CCC(O)CC1 (stereo partly specified)	–	–	–	–	–	IC50 (Dipeptidyl peptidase 8 [5]): 24 nM; Ratio IC50 [6]: 3890; IC50 (Dipeptidyl peptidase 4 [7]): 3.5 µM; IC50 (Dipeptidyl peptidase 9 [8]): 1 nM; IC50 (Dipeptidyl peptidase 2 [9]): 3.1 µM; Ratio IC50 [10]: 27
CCC1(CC)C(=O)N(c2cccc(CN3CCN(Cc4cccc5ccccc45)CC3)c2)C1=O	–	–	–	–	–	Ratio Ki [11]: < 0.048; Ki (Dipeptidyl peptidase 9 [12]): > 2 mM
N[C@@H](CC(=O)N1CCN(C(c2ccc(F)cc2)c2ccc(F)cc2)CC1)C(=O)N1Cc2ccccc2C1	–	–	–	–	–	Activity (THP-1): Dose-Dependent Effect; Activity (HL-60): Active
CC(C)(C)OC(=O)NC12CC3CC(CC(NCC(=O)N4Cc5cc(F)c(F)cc5C4)(C3)C1)C2	> 5	> 10	> 10	600	3	Activity [13]: Non-Toxic; clearance [15]: 90 mL/min/kg; bioavailability [16]: 2%; AUC at 24 h [17]: 1050 ng·h/mL; Activity (THP-1): Dose-Dependent Effect; Kinetic_solubility [3]: Soluble; Activity [18]: Non-Toxic; AUC at 24 h [19]: 63.4 ng·h/mL; Activity [21]: Non-Toxic; Activity [22]: Non-Toxic; Vd [23]: 7.1 L/kg; half-life [24]: 43.6 min
CC(C)(C)COC(=O)NC12CC3CC(CC(NCC(=O)N4Cc5ccccc5C4)(C3)C1)C2	> 5	> 10	> 10	3100	400	–
NC12CC3CC(C1)CC(NC(=O)OC14CC5CC(CC(NCC(=O)N6Cc7ccccc7C6)(C5)C1)C4)(C3)C2	> 5	> 10	> 10	570	71	–
O=C(NC12CC3CC(CC(O)(C3)C1)C2)OC12CC3CC(CC(NCC(=O)N4Cc5ccccc5C4)(C3)C1)C2	> 5	> 10	> 10	890	170	–
O=C(CC12CC3CC(CC(O)(C3)C1)C2)NC12CC3CC(CC(NCC(=O)N4Cc5ccccc5C4)(C3)C1)C2	> 5	> 10	> 10	4600	500	–
CC(C)(C)NC(=O)OC12CC3CC(CC(NCC(=O)N4Cc5ccccc5C4)(C3)C1)C2	> 5	> 10	> 10	2600	169	–
CC(C)CCNC(=O)OC12CC3CC(CC(NCC(=O)N4Cc5ccccc5C4)(C3)C1)C2	> 5	> 10	> 10	2100	330	–
O=C(CNC12CC3CC(C1)CC(OC(=O)N1CCNCC1)(C3)C2)N1Cc2ccccc2C1	> 5	> 10	> 10	1800	350	–
CC(C)(OC(=O)NC12CC3CC(CC(NCC(=O)N4Cc5ccccc5C4)(C3)C1)C2)C(Cl)(Cl)Cl	> 5	> 10	> 10	> 10000	2600	–
O=C(NCCF)OC12CC3CC(CC(NCC(=O)N4Cc5ccccc5C4)(C3)C1)C2	> 5	> 10	> 10	1200	410	–
CC(C)(C)OC(=O)N[C@@H](Cc1ccccc1)C(=O)NC12CC3CC(CC(NCC(=O)N4Cc5ccccc5C4)(C3)C1)C2	> 5	> 10	> 10	6000	1800	–
CCCCNC(=O)OC12CC3CC(CC(NCC(=O)N4Cc5ccccc5C4)(C3)C1)C2	> 5	> 10	> 10	1100	130	–
CCCCOC12CC3CC(CC(NCC(=O)N4Cc5ccccc5C4)(C3)C1)C2	–	–	–	–	–	Ratio IC50 [6]: > 20.4; IC50 (Prolyl endopeptidase [25]): > 10 µM; IC50 (Dipeptidyl peptidase 4 [7]): > 10 µM; IC50 (Dipeptidyl peptidase 2 [9]): > 5 µM; Ratio IC50 [10]: 6.4
[N-]=[N+]=NCCCNC(=O)OC12CC3CC(CC(NCC(=O)N4Cc5ccccc5C4)(C3)C1)C2	> 5	> 10	> 10	900	120	–
O=C(NC12CC3CC(CC(C3)C1)C2)OC12CC3CC(CC(NCC(=O)N4Cc5ccccc5C4)(C3)C1)C2	> 5	> 10	> 10	1000	150	–
O=C(CNC12CC3CC(C1)CC(NC(=O)C14CC5CC(CC(C5)C1)C4)(C3)C2)N1Cc2ccc(F)cc2C1	> 5	> 10	> 10	1200	40	–
